Laboratory results: article PMC9486186 (Bioactive Materials, 2022)

Tested on: BCR-ABL(T315I) induced CML mice
Assay: Survival of BCR-ABL
Assay type: in vivo, mouse
Settings: BPTES 10 mg/kg monotherapy

In the case of `O=C(Cc1ccccc1)Nc1nnc(CCSCCc2nnc(NC(=O)Cc3ccccc3)s2)s1` [BPTES], the “mice still alive on day 60 post BMT” value is reported as 3/9.
